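Dose response: 5 concentrations. Exposure: 48 h. Format: 96-well plates. Endpoint: linear interpolation; highest concentration if not reached. GI50 marks 50% less growth.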 The source made the active and inactive calls. Cut-off read from the data, not from the text of the source: active = GI50 up to about 1.1 µM and inactive = higher.

Test systems include Malme-3M; UACC-62; CCRF-CEM; Hs-578T; HL-60; ACHN; HCT-15; SW-620; EKVX; HOP-92; SF-539; 786-0; T47D; NCI-H460; PC-3; SK-MEL-2; HCC 2998; HT-29; KM12; BT-549.
Holding throughout (assay): NCI tumour cell line growth inhibition, 48 h

Take `NC(=S)N/N=C1/CCCC2CCCC[C@@H]12` (some centres undefined): the GI50 in the test on Malme-3M is > 100 µM (inactive); with UACC-62, > 100 µM (inactive); with CCRF-CEM, > 100 µM (inactive); with Hs-578T, 76.4 µM (inactive); in the test with HL-60 it was > 100 µM (inactive); in the test on ACHN, > 100 µM (inactive). For the same compound, the GI50 with HCT-15 is over 100 µM; in the test with SW-620, > 100 µM (inactive); with EKVX, 35 µM (inactive); with HOP-92, > 100 µM (inactive); with SF-539, > 100 µM (inactive); with 786-0, > 100 µM (inactive). For the same compound, the GI50 in the test with T47D was 37.4 µM (inactive); with NCI-H460, > 100 µM (inactive); in the test with PC-3, > 100 µM (inactive); in the test with SK-MEL-2, > 100 µM (inactive); in the test on HCC 2998, > 100 µM (inactive); in the test with HT-29, > 100 µM (inactive). The GI50 in the test with KM12 was > 100 µM (inactive).

Turning to `COc1cc(O)c2c(=O)cc(C3(OC(C)=O)C=CC(OC4OC(CO)C(O)C(O)C4O)C=C3)oc2c1` (centres undefined), the GI50 in the test on Malme-3M is > 100 µM (inactive); in the test with UACC-62, > 100 µM (inactive); in the test on CCRF-CEM it was > 100 µM (inactive); with HL-60, > 100 µM (inactive); in the test on ACHN, > 100 µM (inactive); in the test on HCT-15, over 100 µM. Further, the GI50 in the test on SW-620, in the test with EKVX, with BT-549, in the test on HOP-92, in the test with SF-539 and in the test with 786-0 was > 100 µM (inactive) each time. For the same compound, the GI50 with T47D, in the test on NCI-H460, with PC-3, in the test with SK-MEL-2, in the test on HCC 2998 and in the test on HT-29 was > 100 µM (inactive) in each case. For the same compound, the GI50 with KM12 was > 100 µM (inactive).

With `CCOC(=O)NN(C(=O)OCC)C(=C(C1=CCCCC1)N1CCOCC1)N(NC(=O)OCC)C(=O)OCC`, the GI50 in the test with Malme-3M is > 100 µM (inactive); in the test with UACC-62, > 100 µM (inactive); in the test on HL-60, > 100 µM (inactive); with ACHN, > 100 µM (inactive); in the test with HCT-15 it was over 100 µM; in the test with SW-620 it was > 100 µM (inactive). The GI50 in the test on EKVX, in the test on BT-549, in the test on HOP-92, in the test on 786-0, in the test on T47D and in the test with NCI-H460 was > 100 µM (inactive) in each case. The GI50 in the test with PC-3, with HCC 2998, in the test with HT-29 and in the test on KM12 was > 100 µM (inactive) in each case.

On to `CCOc1ncn(-c2ccc(NC(=S)NC3OC(CO)C(O)C(O)C3O)cc2)n1` (centres undefined), for which the GI50 was > 100 µM (inactive) with UACC-62; > 100 µM (inactive) in the test with CCRF-CEM; > 100 µM (inactive) in the test with HL-60; over 100 µM in the test on HCT-15; > 100 µM (inactive) with SW-620; > 100 µM (inactive) with EKVX. Further, the GI50 with BT-549, in the test on HOP-92, in the test with SF-539, with 786-0, with T47D and in the test on NCI-H460 was > 100 µM (inactive) each time. In addition, the GI50 in the test on PC-3, in the test on HCC 2998, in the test on HT-29 and in the test on KM12 was > 100 µM (inactive) each time.

As to `CCCCC(C(=O)NCCNC(=O)CCC(=O)N(C)O)C(=O)NCCNC(=O)CCC(=O)N(C)O`, the GI50 in the test on Malme-3M is > 100 µM (inactive); with UACC-62, > 100 µM (inactive); in the test with CCRF-CEM it was > 100 µM (inactive); in the test on HL-60, > 100 µM (inactive); in the test on ACHN, > 100 µM (inactive); with HCT-15, over 100 µM. Further, the GI50 in the test with SW-620, in the test with EKVX, in the test on BT-549, in the test with HOP-92, in the test on SF-539 and in the test with 786-0 was > 100 µM (inactive) in each case. Moreover, the GI50 with T47D, in the test on NCI-H460, with PC-3, in the test with SK-MEL-2, in the test with HCC 2998 and in the test on HT-29 was > 100 µM (inactive) throughout. The GI50 in the test with KM12 was > 100 µM (inactive).

`S=C(Nc1ccc(Br)cn1)NC12CC3CC(CC(C3)C1)C2`: the GI50 is 21.7 µM (inactive) in the test on Malme-3M; 17.5 µM (inactive) in the test on UACC-62; 25.4 µM (inactive) in the test on CCRF-CEM; 13.2 µM (inactive) in the test with ACHN; 68.7 µM in the test with HCT-15; 49.2 µM (inactive) in the test with SW-620. Also, the GI50 is 18.5 µM (inactive) with EKVX; > 10 µM (inactive) with BT-549; 7.18 µM (inactive) in the test with HOP-92; 10.1 µM (inactive) with SF-539; 8.05 µM (inactive) in the test with 786-0; 49.1 µM (inactive) in the test with T47D. Further, the GI50 in the test on NCI-H460 is 28.5 µM (inactive); in the test on PC-3, 17 µM (inactive); in the test on SK-MEL-2 it was 22.3 µM (inactive); with HCC 2998 it was 19.4 µM (inactive); in the test with KM12, > 100 µM (inactive).

Take `CC(=O)Oc1cc2c(n(C)c1=O)CCC2`: the GI50 was > 100 µM (inactive) in the test on Malme-3M; > 100 µM (inactive) in the test with CCRF-CEM; 81.5 µM (inactive) with HL-60; > 100 µM (inactive) in the test with ACHN; 33.6 µM with HCT-15; > 100 µM (inactive) with SW-620. For the same compound, the GI50 in the test on EKVX, with BT-549, in the test with HOP-92, with SF-539, with 786-0 and in the test on NCI-H460 was > 100 µM (inactive) in each case. The GI50 in the test on PC-3 is > 100 µM (inactive); in the test on SK-MEL-2, > 100 µM (inactive); in the test on HCC 2998, 81.7 µM (inactive); in the test on HT-29, > 100 µM (inactive); in the test on KM12, > 100 µM (inactive).

Regarding `Oc1ccc(Cl)cc1C1=NC(NCNC2=NC(c3ccccc3)CC(c3cc(Cl)ccc3O)=N2)=NC(c2ccccc2)C1` (centres undefined), the GI50 was > 100 µM (inactive) with UACC-62; 61 µM (inactive) with CCRF-CEM; > 100 µM (inactive) in the test on HL-60; 43.6 µM (inactive) in the test on ACHN; 43.4 µM in the test on HCT-15; > 100 µM (inactive) in the test with SW-620. In addition, the GI50 with EKVX is > 100 µM (inactive); with BT-549, > 100 µM (inactive); with HOP-92, > 100 µM (inactive); with SF-539 it was > 100 µM (inactive); with 786-0, > 100 µM (inactive); with NCI-H460 it was 87.1 µM (inactive). The GI50 was > 100 µM (inactive) in the test on PC-3; > 100 µM (inactive) in the test with SK-MEL-2; > 100 µM (inactive) in the test on HCC 2998; 70.8 µM (inactive) with HT-29; > 100 µM (inactive) with KM12.

For the compound `NC(=S)N/N=C\CC(O)(C(F)(F)F)C(F)(F)F`, the GI50 in the test on Malme-3M, in the test on UACC-62, with CCRF-CEM, with Hs-578T, in the test on HL-60 and in the test on ACHN was > 10 µM (inactive) each time. For the same compound, the GI50 was over 10 µM with HCT-15; > 10 µM (inactive) with SW-620; > 10 µM (inactive) with EKVX; > 10 µM (inactive) in the test on HOP-92; > 10 µM (inactive) with SF-539; > 10 µM (inactive) in the test on 786-0. For the same compound, the GI50 in the test with T47D, in the test on NCI-H460, with PC-3, in the test on SK-MEL-2, in the test on HCC 2998 and in the test with HT-29 was > 10 µM (inactive) each time. In addition, the GI50 with KM12 was > 10 µM (inactive).

Take `O=c1[nH]nc(Cn2c3ccc(Br)cc3c3nc4ccccc4nc32)n1C1CCCCC1`: the GI50 with UACC-62 is 21.5 µM (inactive); in the test on ACHN, > 100 µM (inactive); with HCT-15 it was over 100 µM; with SW-620 it was 52.7 µM (inactive); with EKVX, 90.8 µM (inactive); in the test on BT-549 it was 42.3 µM (inactive). Besides, the GI50 in the test on HOP-92 was 46.3 µM (inactive); in the test on SF-539, 13.3 µM (inactive); with 786-0 it was 25.2 µM (inactive); with T47D, 57.9 µM (inactive); in the test on NCI-H460, 29.4 µM (inactive); with PC-3, 16.2 µM (inactive). Moreover, the GI50 with SK-MEL-2 was 60.7 µM (inactive); in the test on HCC 2998 it was 54.6 µM (inactive); with HT-29, 36.1 µM (inactive); in the test on KM12, 54 µM (inactive).

In the case of `COc1ccc(/C=C2\C=Cc3ccccc32)cc1OC`, the GI50 with Malme-3M is > 100 µM (inactive); in the test with UACC-62, 23.1 µM (inactive); with CCRF-CEM, 57.1 µM (inactive); with Hs-578T, 29.9 µM (inactive); with HL-60, 10.9 µM (inactive); with ACHN, 78.2 µM (inactive). For the same compound, the GI50 is over 100 µM with HCT-15; > 100 µM (inactive) with SW-620; 22.5 µM (inactive) with EKVX; 6.49 µM (inactive) in the test with HOP-92; > 100 µM (inactive) with SF-539; 57.5 µM (inactive) with 786-0. The GI50 is 47.3 µM (inactive) with T47D; > 100 µM (inactive) with NCI-H460; 46.5 µM (inactive) with PC-3; 72.1 µM (inactive) with SK-MEL-2; > 100 µM (inactive) in the test on HCC 2998; 88.3 µM (inactive) in the test on HT-29. Moreover, in the test with KM12, the GI50 is > 100 µM (inactive).
